Experimental data: patent US20210221787A1, “NIRAPARIB SOLID STATE FORM” (JOHNSON MATTHEY PUBLIC LIMITED COMPANY, priority 2018, published 2021)
Like-named read-outs stand apart in the source and are kept apart here.

What was measured:
[1] = for extended stability (retention of Form A by XRPD): with and without foil bag
Excerpt: “Stabilized” as used herein relates to an anhydrous form of the p-toluenesulfonic acid salt of niraparib that is capable of retaining its form for up to at least 4 months when held in storage in a sealed container with desiccant, with or without being stored in a foiled bag.
XRPD patterns are obtained using a Bruker D8 Advance equipped with a Cu Ka radiation source (λ=1.54 Å), a 9-position sample holder and a LYNXEYE super speed detector. Samples are placed on air sensitive silicon plate holders with zero-background with domes for analysis. One skilled in the art would recognize that the ° 2 θ values and the relative intensity values are generated by performing a peak search on the measured data and the d-spacing values are calculated by the instrument from the ° 2 θ values using Bragg's equation. One skilled in the art would further recognize that the relative intensity for the measured peaks may vary because of sample preparation, orientation and instrument used, for example.

[2] = cited from earlier work

SMILES: Cc1ccc(S(=O)(=O)O)cc1.NC(=O)c1cccc2cn(-c3ccc([C@@H]4CCCNC4)cc3)nc12 [Form A, p-toluenesulfonic acid salt of niraparib]
- extended stability ([1]; Form A not made under anhydrous conditions (Examples 1-3), compared with Form A made under anhydrous conditions): does not exhibit extended stability
- extended stability (retention of Form A by XRPD) ([1]; made under anhydrous conditions (Example 4 or 5), sealed vials with desiccant, ambient, 30° C./65% RH or 40° C./75% RH): at least 4 months
- extended stability (retention of Form A by XRPD) ([1]; stored only in sealed vials, without desiccant): do not exhibit the extended stability

SMILES: Cc1ccc(S(=O)(=O)O)cc1.NC(=O)c1cccc2cn(-c3ccc([C@@H]4CCCNC4)cc3)nc12 [Form III, p-toluenesulfonic acid salt of niraparib]
- form conversion on DVS ([2]; DVS up to 95% RH): converted to the monohydrate
- hygroscopicity (DVS curve) ([2]; DVS): very hygroscopic
- DVS weight gain ([2]; up to 95% RH): approximately 15.8%
